Usually Papp A→B stands for how fast a substance crosses the layer from the apical side. By Papp B→A is commonly meant how fast a substance crosses the layer from the basolateral side. By IC50 is commonly meant the concentration needed to halve the response being measured.

A short description of series [1]: Caco-2 bidirectional permeability and efflux ratio. Conditions: human, Caco-2, 10 µM, 120 minutes. Type of series: in vitro ADME. The protocol:
(§1) The bidirectional permeability and efflux ratio of the example compounds and control compound were determined in a Caco-2 monolayer cell model.
(§2) Caco-2 cells (cultured at Shanghai Medicilon Inc.) were recovered in the experiment. After the cells were in good condition, they were digested, and the cell density was adjusted (1 × 10^5 cells/cm^2). Caco-2 cells were seeded into Transwell chambers and placed in 24-well plates for cultivation. After continuous cultivation for about 21 days, TEER values were measured one day before the experiment to ensure formation of a confluent cell monolayer for transport experiments (TEER > 200 Ω·cm^2). Test compounds were diluted from 10 mM stock solutions to 10 µM concentration using transport buffer (HBSS containing BSA) (metoprolol and atenolol were set as positive compounds). For efflux determination, 0.6 mL of compound dilution solution was added to the outer well (side B), and 0.4 mL of blank transport buffer was added to the Transwell chamber. For absorption determination, 0.4 mL of transport buffer containing compound was added to the Transwell chamber, and 0.6 mL of blank transport buffer was added to the outer side. After setup, the 24-well plates were cultivated at 37 °C and 5% CO2 with 95% relative humidity for 120 minutes, and permeability of test compounds from A to B direction or B to A direction was measured, respectively, with two duplicate wells set for each direction. Liquid in Transwell chambers and 24-well plates was collected separately, 60 µL each, and 180 µL of acetonitrile (containing internal standard) was added, vortexed for 1 min, then centrifuged at 4 °C, 10000 rpm for 10 min. The supernatant was taken, filtered through a 0.22 µm membrane, and placed in vials for testing. The content of the compounds in each Transwell chamber and 24-well plate was determined by liquid chromatography-tandem mass spectrometry (LC-MS/MS). Table 4 Permeability data of compounds of the present disclosure

Series [2] has as its system Caco-2 monolayer cell model. Kind of series: Caco-2 bidirectional permeability and efflux ratio. Type of series: in vitro ADME. The settings on record: Caco-2, conclusion. The protocol:
as §1, §2

The target of the next series is T1, recombinant human WRN (Homo sapiens, UniProt Q14191).
T1 construct: purchased BPS 101264
As to the kind of experiment: Inhibition of WRN enzyme activity (ATPase), ADP-Glo Kinase Assay. In kind it is biochemical. Conditions: WRN protein 5 nM, Flap 0.1 nM, ATP 30 µM; read-out: IC50. A digest of the protocol:
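ATPase activity was measured by ADP-Glo luminescence after a 10-min room-temperature reaction with 30 µM ATP and 0.1 nM Flap26 oligonucleotide substrate. The 5 nM WRN had first been exposed to compound (0.004–1000 nM) for 15 min in pH 7.5 Tris buffer with 2 mM MgCl2. IC50 values came from log-concentration regression against the DMSO control.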
Background: ADP-Glo turns the ADP formed in a reaction into a luminescent signal.

T1 sequence (Q14191 whole entry): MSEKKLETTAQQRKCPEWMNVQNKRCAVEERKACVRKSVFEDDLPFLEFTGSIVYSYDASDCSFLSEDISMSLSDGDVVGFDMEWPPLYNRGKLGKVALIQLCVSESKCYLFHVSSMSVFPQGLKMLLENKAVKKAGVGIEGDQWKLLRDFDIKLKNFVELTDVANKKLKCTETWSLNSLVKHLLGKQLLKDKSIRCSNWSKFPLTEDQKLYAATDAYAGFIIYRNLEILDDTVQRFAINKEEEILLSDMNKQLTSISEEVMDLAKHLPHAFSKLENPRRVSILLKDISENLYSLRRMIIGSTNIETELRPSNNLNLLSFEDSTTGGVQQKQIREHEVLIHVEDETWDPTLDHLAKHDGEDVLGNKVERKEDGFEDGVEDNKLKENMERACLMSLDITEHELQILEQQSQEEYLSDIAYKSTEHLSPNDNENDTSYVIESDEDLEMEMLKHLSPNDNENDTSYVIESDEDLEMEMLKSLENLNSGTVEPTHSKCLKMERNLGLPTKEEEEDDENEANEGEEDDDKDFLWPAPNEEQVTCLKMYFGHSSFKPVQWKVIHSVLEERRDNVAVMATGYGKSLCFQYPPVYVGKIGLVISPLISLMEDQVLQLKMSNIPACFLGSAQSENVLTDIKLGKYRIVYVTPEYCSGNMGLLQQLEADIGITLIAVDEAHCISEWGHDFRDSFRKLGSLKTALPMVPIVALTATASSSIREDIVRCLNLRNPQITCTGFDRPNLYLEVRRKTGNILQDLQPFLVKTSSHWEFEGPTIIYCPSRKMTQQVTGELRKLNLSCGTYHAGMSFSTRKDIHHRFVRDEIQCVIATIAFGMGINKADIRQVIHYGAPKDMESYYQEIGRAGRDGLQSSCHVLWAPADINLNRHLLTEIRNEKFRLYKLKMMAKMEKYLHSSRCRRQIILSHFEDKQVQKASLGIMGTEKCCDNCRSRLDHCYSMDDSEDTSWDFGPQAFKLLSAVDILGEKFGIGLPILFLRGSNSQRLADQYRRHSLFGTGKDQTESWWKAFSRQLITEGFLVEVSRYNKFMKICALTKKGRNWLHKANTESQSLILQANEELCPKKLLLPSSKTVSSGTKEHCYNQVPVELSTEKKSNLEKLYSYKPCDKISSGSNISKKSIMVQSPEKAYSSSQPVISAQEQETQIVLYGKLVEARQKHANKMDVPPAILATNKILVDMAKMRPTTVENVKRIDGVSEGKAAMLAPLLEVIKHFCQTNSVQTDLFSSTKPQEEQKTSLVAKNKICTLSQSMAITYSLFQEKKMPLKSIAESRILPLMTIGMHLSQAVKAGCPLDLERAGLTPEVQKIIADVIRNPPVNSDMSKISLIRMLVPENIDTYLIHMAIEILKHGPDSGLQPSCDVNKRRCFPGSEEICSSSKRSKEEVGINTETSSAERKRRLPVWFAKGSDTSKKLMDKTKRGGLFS

`CCc1c(N2CCN(C(=O)c3ncnc(C)c3O)CC2)c(=O)n2nc(-c3cc4ccccc4s3)nc2n1CC(=O)Nc1ccc(C(F)(F)F)cc1Cl` [Example 80, 2-(2-(benzo[b]thiophen-2-yl)-5-ethyl-6-(4-(5-hydroxy-6-methylpyrimidine-4-carbonyl)piperazin-1-yl)-7-oxo-[1,2,4]triazolo[1,5-a]pyrimidin-4(7H)-yl)-N-(2-chloro-4-(trifluoromethyl)phenyl)acet amide]: the efflux ratio at 120 min, 10 µM in series [1] (read-out: Efflux ratio Papp(B-A)/ Papp(A-B)) was 0.62. For the same compound, the Papp A→B at 120 min, 10 µM in series [1] (A to B) came to 36.7 nm/s. The Papp B→A at 120 min, 10 µM in series [1] (B to A) was 22.9 nm/s. Further, in series [2], the “efflux (in words)” value is reported as “no significant efflux” and the “permeability (in words)” value is recorded as “moderate permeability”. In addition, the IC50 on recombinant human WRN was in the range of 0.001 to 0.1 µM.

Values taken from patent EP4800015A1, “AZABICYCLO DERIVATIVE AND PREPARATION METHOD THEREFOR, AND USE” (Zhejiang Hisun Pharmaceutical Co., Ltd., priority 2023, dated 2025).
